Patent US20040214832A1, “Piperazine derivative renin inhibitors” (priority 2003, published 2004)

target: T1, human renin (Homo sapiens, UniProt P00797); assay: Determination of renin IC50 by tGFP FRET assay; type: biochemical; conditions: Human recombinant renin, tandem GFP substrate 650 nM, 60 min incubation with compound, pH 7.4, 11-point curve
T1 sequence (P00797 67-406): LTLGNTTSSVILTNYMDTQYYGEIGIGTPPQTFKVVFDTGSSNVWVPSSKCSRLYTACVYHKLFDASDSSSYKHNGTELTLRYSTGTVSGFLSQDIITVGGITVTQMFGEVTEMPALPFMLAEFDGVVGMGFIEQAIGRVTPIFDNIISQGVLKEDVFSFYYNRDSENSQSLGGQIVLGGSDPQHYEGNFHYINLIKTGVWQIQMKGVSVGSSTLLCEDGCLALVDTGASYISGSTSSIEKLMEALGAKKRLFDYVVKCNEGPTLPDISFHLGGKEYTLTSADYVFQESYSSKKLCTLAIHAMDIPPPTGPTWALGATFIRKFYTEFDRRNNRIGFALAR
Method in brief: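 Human recombinant renin (final 50.4 μIU) preincubated 60 min with compound (5% DMSO final) in 50 mM HEPES, 1 mM EDTA, 1% PEG 8000, 1 mM DTT, 0.1% BSA, pH 7.4, then tandem-GFP substrate added at 650 nM final. FRET fluorescence read; IC50 from 11-point curves spanning 100 μM–1 pM.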

IC50	Compound
5 nM	CC(=O)NCCN1CCCc2ccc(OC[C@H]3CNCC(=O)N3c3ccc(OCCCOCc4ccccc4F)cc3)cc21 [Example 126, N-{2-[7-([2R]-1-{4-[3-(2-Fluorobenzyloxy)-propoxy]-phenyl}-6-oxopiperazin-2-ylmethoxy)-3,4-dihydro-2H-quinolin-1-yl]-ethyl}-acetamide]
0.18 nM	COCCCN1C(=O)COc2ccc(SC[C@H]3CNCC(=O)N3c3ccc(OCCCOCc4ccccc4OC)cc3)cc21 [Example 128, 6-([2R]-1-{4-[3-(2-Methoxybenzyloxy)-propoxy]-phenyl}-6-oxo-piperazin-2-ylmethylsulfanyl)-4-(3-methoxypropyl)-4H-benzo[1,4]oxazin-3-one]
0.17 nM	CCOC(=O)CN1C(=O)COc2ccc(SC[C@H]3CNCC(=O)N3c3ccc(OCCCOCc4ccccc4OC)cc3)cc21 [Example 129, [6-([2R]-1-{4-[3-(2-Methoxybenzyloxy)-propoxy]-phenyl}-6-oxo-piperazin-2-ylmethylsulfanyl)-3-oxo-2,3-dihydro-benzo[1,4]oxazin-4-yl]-acetic acid ethyl ester]
6 nM	CCOC(=O)Cn1ccc2ccc(OC[C@H]3CNCC(=O)N3c3ccc(OCCCOCc4ccccc4OC)cc3)cc21 [Example 132, [6-([2R]-1-{4-[3-(2-Methoxybenzyloxy)-propoxy]-phenyl}-6-oxo-piperazin-2-ylmethoxy)-indol-1-yl]-acetic acid ethyl ester]
9.59 nM	COC(=O)CCN1CCc2ccc(OC[C@H]3CNCC(=O)N3c3ccc(OCCCOCc4ccccc4OC)cc3)cc21 [Example 133, 3-[6-([2R]-1-{4-[3-(2-Methoxybenzyloxy)-propoxy]-phenyl}-6-oxo-piperazin-2-ylmethoxy)-2,3-dihydro-indol-1-yl]-propionic acid methyl ester]
